Legend:
[1] = In vitro relaxivity measurements (NMR relaxometer, 60 MHz, 37° C.); type: physicochemical
Description: In vitro relaxivity measurements were used to evaluate the efficacy (relaxivity) of the Combo formulations compared to the standalone commercial contrast agents. Longitudinal relaxation times were measured in 150 mM saline solution at 37° C. using a Minispec Mq benchtop NMR relaxometer (Bruker Instruments, Rheinstetten, Germany) operating at 60 MHz. The longitudinal relaxivity of the complexes were calculated by plotting the reciprocal of the T1 relaxation time versus the gadolinium concentration as determined via ICP-MS for each individual agent and the Combo formulations tested.

[2] = Contrast-enhanced MR imaging of dynamic vascular and delayed phases in minipigs; type: in vivo, Gottingen minipigs; details: for Peak Aorta SI: aorta ROI, 3.0 T, IV single injection 0.3 ml/kg; for percentage relative vascular intensity (1-RVI %), AP: arterial phase, 30 secs; for RVI AUC (total vascular enhancement: aorta, IVC, PV): composite RVI curves normalised to liver parenchyma, trapezoidal rule; for percentage relative vascular intensity (1-RVI %), LVP: late venous phase, 120 secs; for percentage relative vascular intensity (1-RVI %), PVP: portal venous phase, 60 secs
Description: The study was approved by the Universitair Ziekenhuis Brussel (UZB), Belgium local ethics committee for animal experiments on the 9 Mar. 2016 (EC number: 16-272-4). All animal experiments were carried out in accordance with the applicable laws and regulations. Naïve minipigs (Gottingen minipigs, Ellegaard Gottingen Minipigs, Denmark) were chosen as the model as its cardiac function and vascular dynamics closely resembles that of the human allowing optimal spatial and temporal resolution for the evaluation of the dynamic vascular phase.
The study consisted of five dosing groups (2 groups of contrast agent administered as single stand-alone dose; 3 groups administered with the Combo formulations). Each animal was tested once within each dosing group with a washout period of one week.
For each MRI examination, anaesthesia was induced with a bolus of the Zoletil mixture (0.06 ml/kg, intramuscular) and maintained by an infusion of Nesdonal (0.6 ml/kg/h, intravenously (IV) administered). Test items were administered IV as a single injection via PAC unit (Port-a-cath, Power PAC II, 1.9 mm, Smiths Medical, Belgium). The test items were administered at a volume of 0.3 ml/kg using a power injector (Medrad Spectris Solaris) at a rate of 2 ml/s. Immediately following administration, 20 ml saline was passed through the tubing to flush any remaining test item.
All MRI acquisitions were performed on a clinical 3.0 T GE MR750w scanner (GE Discovery, GE Healthcare, Waukesha, Wis.) using an abdominal phase-array surface coil positioned on the abdomen of the pigs. A multiphase dynamic 3D T1w LAVA (Liver Acquisition with Volume Acquisition) was performed using bolus timing to capture the early arterial to the late venous vascular phase using the following imaging parameters: TR/TE=2.9/1.3 ms, FA=12°, FoV=42×40 cm, matrix 220×160, slice thickness=3 mm, number of slices=40, NEX=1. The protocol also included a free-breathing navigated LAVA acquired at both pre and post administration of test item (during the delayed enhancement phase).
Quantitative analysis on the time-resolved dynamic series was completed using the Advantage Windows VolumeShare 7 Workstation (GE Healthcare). […] Visual verification of all ROI locations was performed by an abdominal radiologist. For each test item, absolute signal intensity (SI) curves were analysed for each of the ROIs and expressed as peak value with inter-quartile ranges of 25% and 75%.
To calculate the vascular enhancement, relative vascular intensity (RVI) was normalised to liver parenchyma for the aorta, IVC and PV using the equation below.
Relative Vascular Intensity (RVI)=(SI(Vessel)−SI(Liver))/(SI(Liver))
Using the RVI curves, composite vascular intensity curves were derived encompassing all vascular signal from the aorta, IVC and the PV. The total vascular enhancement associated with each test item was determined by the trapezoidal rule of area under the curve (AUC), where positive signal above y=0 was included. From this, time-relative fractions at the arterial phase (AP: 30 secs), portal venous phase (PVP: 60 secs) and late venous phase (LVP: 120 secs) were expressed as a proportion of the total vascular AUC (% RVI) and were calculated as 1-% RVI to give the percentage reduction though each phase.
For the delayed phase, a qualitative assessment was performed by an experienced radiologist for the presence or lack of enhancement pre and post-administration of test item.

[3] = normal liver, after intravenous injection; cited from earlier work

Substance | Relaxivity in aqueous solution (r1) [1] | peak arterial enhancement, SI (in words) ([2]; SI curves, aorta) | Peak Aorta SI [2] | percentage relative vascular intensity (1-RVI %), AP [2] | RVI AUC (total vascular enhancement: aorta, IVC, PV) [2] | percentage relative vascular intensity (1-RVI %), LVP [2] | percentage relative vascular intensity (1-RVI %), PVP [2] | vascular enhancement in LVP (in words) ([2]; 120 secs post injection) | hepatobiliary excretion [3]
2-[4,7-his(carboxylatomethyl)-1 0-(carboxymethyl)-1,4, 7,10-tetrazacyclododec-1-yl]acetate; gadolinium(3+) [Gadoterate] | 2.9 mM⁻¹ s⁻¹ | highest SI | 2402 | 97.5% | 63.2 AU | 8.4% | 42.8% |  | 
disodium; 2-[[2-[bis(carboxylatomethyl)amino]-3-(4-ethoxyphenyl)propyl]-[2-bis(carboxylatomethyl)amino]ethyl]amino]acetate, gadolinium(3+) [Gadoxetate] | 4.7 mM⁻¹ s⁻¹ |  | 2096 | 82.4% | 34.2 AU | 0.0% | 19.0% | no vascular enhancement evident | up to 50%
